Experimental data taken from US10519211B2, “Compounds as peptidic GLP1/glucagon/GIP receptor agonists” (SANOFI, priority 2016, dated 2019).
Numbered stars: 1 amine (or outer) side, 2 acyl side, 3 side chain; on linkers, the order of the positions; unused ones are H or OH. Square brackets hold non-standard residues; d marks the D form. Side chains are listed from the residue outwards. Peptide text beside a SMILES is read from it. * marks the point of attachment. γGlu = O=C(O)[C@H](CCC(=O)[*:2])N[*:1]; Palmitoyl = CCCCCCCCCCCCCCCC(=O)*; Aib = CC(C)(N)C(=O)O

Legend:
[1] = target: T1, human GLP-1 receptor (hGLP-1 R) (Homo sapiens, UniProt P43220); assay: cAMP response (HTRF) of HEK-293 cells stably expressing human GLP-1 receptor; type: cell-based; conditions: Table 8; cAMP formation
T1 construct: expressed in transfected cells; host or cells: HEK-293
Experimental: cAMP content of cells was determined using a kit from Cisbio Corp. (cat. no. 62AM4PEJ) based on HTRF (Homogenous Time Resolved Fluorescence). For preparation, cells were split into T175 culture flasks and grown overnight to near confluency in medium (DMEM/10% FBS). Medium was then removed and cells washed with PBS lacking calcium and magnesium, followed by proteinase treatment with accutase (Sigma-Aldrich cat. no. A6964). Detached cells were washed and resuspended in assay buffer (1×HBSS; 20 mM HEPES, 0.1% BSA, 2 mM IBMX) and cellular density determined. They were then diluted to 400000 cells/ml and 25 μl-aliquots dispensed into the wells of 96-well plates. For measurement, 25 μl of test compound in assay buffer was added to the wells, followed by incubation for 30 minutes at room temperature.
Potencies of peptidic compounds at the GLP-1, glucagon and GIP receptors were determined by exposing cells expressing human glucagon receptor (hGlucagon R), human GIP receptor (hGIP-R) or human GLP-1 receptor (hGLP-1 R) to the listed compounds at increasing concentrations and measuring the formed cAMP as described in Methods.

[2] = Solubility assessment (UPLC-UV); type: physicochemical; conditions: acetate buffer pH 4.5, 2.7 mg/ml m-cresol (buffer system A), target 10 mg/ml
Outline: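 Peptides at 10 mg/mL (purity-corrected, by UPLC/MS) in 100 mM acetate buffer pH 4.5 with 2.7 mg/ml m-Cresol, gently agitated 1 hour, then centrifuged 15 min at 2500 RCF. Supernatant, diluted 1:10, quantified by UPLC-UV peak area against a reference peptide standard curve, extinction-coefficient corrected.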

T1 sequence (P43220 24-463): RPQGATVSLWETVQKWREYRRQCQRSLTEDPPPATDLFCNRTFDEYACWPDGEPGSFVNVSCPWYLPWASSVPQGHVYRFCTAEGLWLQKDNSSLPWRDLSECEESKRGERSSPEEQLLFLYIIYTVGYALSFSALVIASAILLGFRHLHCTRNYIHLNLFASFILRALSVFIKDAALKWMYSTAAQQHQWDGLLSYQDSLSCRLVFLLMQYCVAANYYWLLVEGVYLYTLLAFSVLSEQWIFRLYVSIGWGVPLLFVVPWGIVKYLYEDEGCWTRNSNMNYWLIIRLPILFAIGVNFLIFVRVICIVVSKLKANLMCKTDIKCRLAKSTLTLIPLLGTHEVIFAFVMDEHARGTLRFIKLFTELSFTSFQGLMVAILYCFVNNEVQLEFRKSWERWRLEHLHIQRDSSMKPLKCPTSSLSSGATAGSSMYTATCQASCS

CCCCCCCCCCCCCCCC(=O)N[C@@H](CCC(=O)N[C@@H](CCC(=O)NCCCC[C@H](NC(=O)[C@H](CC(C)C)NC(=O)[C@H](CCCCN)NC(=O)[C@H](CO)NC(=O)[C@H](CC(C)C)NC(=O)[C@H](CC(=O)O)NC(=O)[C@H](CO)NC(=O)[C@@H](NC(=O)[C@H](Cc1ccccc1)NC(=O)[C@@H](NC(=O)CNC(=O)[C@H](CCC(N)=O)NC(=O)C(C)(C)NC(=O)[C@@H](N)Cc1c[nH]cn1)[C@@H](C)O)[C@@H](C)O)C(=O)N[C@@H](CCC(=O)O)C(=O)N[C@@H](CCC(=O)O)C(=O)N[C@@H](CCC(N)=O)C(=O)N[C@@H](CCCNC(=N)N)C(=O)N[C@@H](CCC(N)=O)C(=O)NC(C)(C)C(=O)N[C@@H](CCC(=O)O)C(=O)N[C@@H](Cc1ccccc1)C(=O)N[C@H](C(=O)N[C@@H](CCC(=O)O)C(=O)N[C@@H](Cc1c[nH]c2ccccc12)C(=O)N[C@@H](CC(C)C)C(=O)N[C@@H](CCCCN)C(=O)N[C@@H](C)C(=O)N[C@H](C)C(=O)NCC(=O)N1CCC[C@H]1C(=O)N1CCC[C@H]1C(=O)N[C@@H](CO)C(=O)NC(C)(C)C(=O)N[C@@H](CCCCN)C(=O)N1CCC[C@H]1C(=O)N1CCC[C@H]1C(=O)N1CCC[C@H]1C(=O)N[C@@H](CCCCN)C(N)=O)[C@@H](C)CC)C(=O)O)C(=O)O [SEQ ID NO: 10, H-Aib-Q-G-T-F-T-S-D-L-S-K-L-K[gGlu-gGlu-Palm]-E-E-Q-R-Q-Aib-E-F-I-E-W-L-K-A-dAla-G-P-P-S-Aib-K-P-P-P-K-NH2] (H-H[Aib]QGTFTSDLSKLK([γGlu-γGlu-Palmitoyl])EEQRQ[Aib]EFIEWLKA[dA]GPPS[Aib]KPPPK-NH2)
EC50 [1]: 2.4 pM
solubility at 1 h [2]: > 10.1 mg/mL
